Source: PubChem BioAssay (NCI)
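Method: 48-hour compound exposure of cells in 96-well plates, five concentrations, linear interpolation of endpoints. Here, GI50 denotes the concentration required for 50% inhibition of growth. TGI: total growth inhibition.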

Legend:
Assay in all cases: NCI anticancer screen, dose series, 48 h
[1] = tested on: SF-295 CNS
[2] = tested on: TK-10 renal
[3] = tested on: MOLT-4 leukemia
[4] = tested on: HCT-15 colon
[5] = tested on: NCI/ADR-RES ovarian
[6] = tested on: MCF7 breast
[7] = tested on: OVCAR-5 ovarian
[8] = tested on: NCI-H522 lung
[9] = tested on: KM12 colon
[10] = tested on: A549 NSCLC
[11] = tested on: HCC-2998 colon
[12] = tested on: IGROV1 ovarian
[13] = tested on: M14 melanoma
[14] = tested on: 786-0 renal
[15] = tested on: SK-OV-3 ovarian
[16] = tested on: A498 renal
[17] = tested on: DU-145 prostate
[18] = tested on: SF-268 CNS
[19] = tested on: NCI-H226 lung
[20] = tested on: HCT-116 colon
[21] = tested on: SNB-19 CNS
[22] = tested on: HT29 colon
[23] = tested on: UACC-257 melanoma
[24] = tested on: SF-539 CNS
[25] = tested on: UO-31 renal
[26] = tested on: OVCAR-8 ovarian
[27] = tested on: COLO 205 colon
[28] = tested on: NCI-H460 lung
[29] = tested on: EKVX NSCLC
[30] = tested on: RPMI-8226 leukemia
[31] = tested on: MDA-MB-435
[32] = tested on: OVCAR-4 ovarian
[33] = tested on: SNB-75 CNS
[34] = tested on: SR leukemia
[35] = tested on: HOP-62 NSCLC
[36] = tested on: T-47D breast
[37] = tested on: CAKI-1 renal
[38] = tested on: U251 CNS
[39] = tested on: UACC-62 melanoma
[40] = tested on: OVCAR-3 ovarian
[41] = tested on: PC-3 prostate
[42] = tested on: CCRF-CEM leukemia
[43] = tested on: SK-MEL-2 melanoma
[44] = tested on: SW-620 colon
[45] = tested on: SK-MEL-28 melanoma
[46] = tested on: SK-MEL-5 melanoma
[47] = tested on: MALME-3M melanoma
[48] = tested on: HOP-92 NSCLC
[49] = tested on: K-562 leukemia
[50] = tested on: HS 578T breast
[51] = tested on: ACHN renal
[52] = tested on: MDA-MB-231 breast
[53] = tested on: RXF 393 renal
[54] = tested on: BT-549 breast
[55] = tested on: SN12C renal
[56] = tested on: HL-60(TB) leukemia
[57] = tested on: LOX IMVI melanoma

Compound `CS(=O)c1nccc(-c2c(-c3ccc(F)c(OCCc4ccc(F)cc4)c3)nc3sccn23)n1` (centres undefined) has a GI50 [1] of over 100 µM, a TGI [1] of over 100 µM and a GI50 [2] of 30.9 µM. For the same compound, the TGI [2] was over 100 µM, the GI50 [3] was 4.04 µM and the TGI [3] was 15.8 µM. It also gave a GI50 [4] of 3.95 µM, a TGI [4] of 16.9 µM and a GI50 [5] of 20.3 µM. For the same compound, the TGI [5] was 49 µM, the GI50 [6] was 2.02 µM and the TGI [6] was 4.81 µM. For the same compound, the GI50 [7] was 39.9 µM, the TGI [7] was over 100 µM and the GI50 [8] was 13.5 µM. For the same compound, the TGI [8] was 29.7 µM, the GI50 [9] was 14.5 µM and the TGI [9] was 29.2 µM. It also gave a GI50 [10] of over 100 µM, a TGI [10] of over 100 µM and a GI50 [11] of 11.7 µM. It also gave a TGI [11] of 24.9 µM, a GI50 [12] of 2.48 µM and a TGI [12] of 6.65 µM. For the same compound, the GI50 [13] was 15.2 µM, the TGI [13] was 30.4 µM and the GI50 [14] was 34.8 µM. It also gave a TGI [14] of over 100 µM, a GI50 [15] of over 100 µM and a TGI [15] of over 100 µM. The GI50 [16] was over 100 µM, the TGI [16] was over 100 µM and the GI50 [17] was 4.13 µM. It also gave a TGI [17] of 14.5 µM, a GI50 [18] of 16.1 µM and a TGI [18] of 32.1 µM. For the same compound, the GI50 [19] was 15.5 µM, the TGI [19] was 32.4 µM and the GI50 [20] was 3.52 µM. For the same compound, the TGI [20] was 12.4 µM, the GI50 [21] was 14.6 µM and the TGI [21] was 29.3 µM. It also gave a GI50 [22] of 14.9 µM, a TGI [22] of 30.1 µM and a GI50 [23] of 14.6 µM. The TGI [23] was 29.5 µM, the GI50 [24] was 18 µM and the TGI [24] was 41 µM. For the same compound, the GI50 [25] was 1.82 µM, the TGI [25] was 4.11 µM and the GI50 [26] was 14.3 µM. For the same compound, the TGI [26] was 28 µM, the GI50 [27] was 28.4 µM and the TGI [27] was over 100 µM. The GI50 [28] was 4.89 µM, the TGI [28] was 17.4 µM and the GI50 [29] was 17 µM. For the same compound, the TGI [29] was 42.3 µM, the GI50 [30] was 4.84 µM and the TGI [30] was 28.4 µM. It also gave a GI50 [31] of 16.7 µM, a TGI [31] of 32.2 µM and a GI50 [32] of 14.7 µM. For the same compound, the TGI [32] was 28.6 µM, the GI50 [33] was 21.2 µM and the TGI [33] was over 100 µM. For the same compound, the GI50 [34] was 4.22 µM, the TGI [34] was 28.8 µM and the GI50 [35] was 16.2 µM. It also gave a TGI [35] of 32.2 µM, a GI50 [36] of 2.49 µM and a TGI [36] of 6.12 µM. It also gave a GI50 [37] of 11.1 µM, a TGI [37] of 23 µM and a GI50 [38] of 28.8 µM. It also gave a TGI [38] of over 100 µM, a GI50 [39] of 16.1 µM and a TGI [39] of 33.2 µM. The GI50 [40] was 3.45 µM, the TGI [40] was 12.9 µM and the GI50 [41] was 11.9 µM. For the same compound, the TGI [41] was 27.4 µM, the GI50 [42] was 5.16 µM and the TGI [42] was 24 µM. It also gave a GI50 [43] of 15.6 µM, a TGI [43] of 29.7 µM and a GI50 [44] of 3.5 µM. It also gave a TGI [44] of 14.1 µM, a GI50 [45] of 9.81 µM and a TGI [45] of 21.5 µM. It also gave a GI50 [46] of 23.4 µM, a TGI [46] of 58.7 µM and a GI50 [47] of 15.3 µM. It also gave a TGI [47] of 33.3 µM, a GI50 [48] of 6.72 µM and a TGI [48] of 26.7 µM. The GI50 [49] was 3.04 µM, the TGI [49] was 11.7 µM and the GI50 [50] was 19.9 µM. The TGI [50] was 79.6 µM, the GI50 [51] was 2.07 µM and the TGI [51] was 4.37 µM. The GI50 [52] was 14.6 µM, the TGI [52] was 31.9 µM and the GI50 [53] was 13.3 µM. For the same compound, the TGI [53] was 26.3 µM, the GI50 [54] was 18.4 µM and the TGI [54] was 37.5 µM. For the same compound, the GI50 [55] was 15.2 µM, the TGI [55] was 33.7 µM and the GI50 [56] was 2.5 µM. It also gave a TGI [56] of 6.05 µM, a GI50 [57] of 10.5 µM and a TGI [57] of 23.4 µM.
